{"source": "patent US20070128217A1", "about": "(priority 2003, published 2007)", "key": {"[1]": {"system": "antibodies in sera from SARS patients (sera 1a, 1b, 2, 6, 37, 62, London, SARS-yellow, SARS-green)", "assay_type": "binding, human", "set-up": "Binding of serum 6 to linear peptides of protein X1 of SARS-CoV Urbani / Binding of serum 37 to linear peptides of protein X1 of SARS-CoV Urbani / Binding of serum 6 to looped/cyclic peptide (PEPSCAN-ELISA) / Binding of serum 37 to looped/cyclic peptide (PEPSCAN-ELISA) / Binding of serum 37 to looped/cyclic peptides of protein X1 of SARS-CoV Urbani / Binding of serum 6 to linear peptides of protein X2 / Binding of serum 37 to linear peptides of protein X2 / Binding of serum 37 to looped/cyclic peptides of protein X2 of SARS-CoV Urbani / Binding of serum 6 to linear peptides of protein M of SARS-CoV Urbani / Binding of serum 37 to linear peptides of protein M of SARS-CoV Urbani / Binding of serum 6 to looped/cyclic peptides of protein M of SARS-CoV Urbani / Binding of serum 37 to looped/cyclic peptides of protein M of SARS-CoV Urbani / Binding of serum 6 to linear peptides of protein X3 of SARS-CoV Urbani / Binding of serum 37 to linear peptides of protein X3 of SARS-CoV Urbani / Binding of serum 37 to looped/cyclic peptides of protein X3 of SARS-CoV Urbani / Binding of serum 6 to linear peptides of protein X4 of SARS-CoV Urbani / Binding of serum 37 to linear peptides of protein X4 of SARS-CoV Urbani / Binding of serum 37 to looped/cyclic peptides of protein X4 of SARS-CoV Urbani / Binding of serum 6 to linear peptides of protein X5 of SARS-CoV Urbani / Binding of serum 37 to linear peptides of protein X5 of SARS-CoV Urbani / Binding of serum 37 to looped/cyclic peptides of protein X5 of SARS-CoV Urbani / Binding of serum 6 to linear peptides of protein N of SARS-CoV Urbani / Binding of serum 37 to linear peptides of protein N of SARS-CoV Urbani / Binding of serum 6 to linear peptide (PEPSCAN-ELISA) / Binding of serum 1a to looped/cyclic peptides of protein N of SARS-CoV Urbani / Binding of serum 1b to looped/cyclic peptides of protein N of SARS-CoV Urbani / Binding of serum 2 to looped/cyclic peptides of protein N of SARS-CoV Urbani / Binding of serum 6 to looped/cyclic peptides of protein N of SARS-CoV Urbani / Binding of serum 37 to looped/cyclic peptides of protein N of SARS-CoV Urbani / Binding of serum 62 to looped/cyclic peptides of protein N of SARS-CoV Urbani / Binding of serum London to looped/cyclic peptides of protein N of SARS-CoV Urbani / Binding of serum SARS-green to looped/cyclic peptides of protein N of SARS-CoV Urbani: unit not given here"}, "[2]": {"system": "control sera (pooled serum of ten healthy LUMC hospital workers; commercial negative donor pooled serum from the Dutch bloodbank)", "assay_type": "binding, human", "set-up": "Binding of Control serum LUMC to linear peptides / Binding of Control serum Blood-bank to linear peptides / Binding of Control serum LUMC to looped peptides / Binding of Control Serum Blood-Bank to Looped peptides / Binding of Control serum LUMC to linear peptides of the protein M of SARS-CoV Urbani / Binding of Control serum Blood-bank to linear peptides of the protein M of SARS-CoV Urbani / Binding of Control serum LUMC to looped peptides of the protein M of SARS-CoV Urbani / Binding of Control Serum Blood-Bank to Looped peptides of the protein M of SARS-CoV Urbani: unit not given here"}, "[3]": {"system": "rabbit serum obtained by immunizing a rabbit with the SARS-CoV strain Frankfurt 1", "assay_type": "binding", "set-up": "Binding of a rabbit serum to linear peptides / Binding of a rabbit serum to looped peptides / Rabbit serum linear peptides / Rabbit serum looped peptides / Binding of a rabbit serum to linear peptides of protein N of SARS-CoV Urbani (Rabbit serum linear peptides) / Binding of a rabbit serum to looped/cyclic peptides of protein N of SARS-CoV Urbani (Rabbit serum looped peptides): unit not given here"}}, "data": [{"sequence": "QLESTQITTDTGIEN", "values": [{"measurement": "Binding of serum 1a to linear peptides of protein X1 of SARS-CoV Urbani", "setting": "[1]", "value": 0.6}, {"measurement": "Binding of serum 1a to looped/cyclic peptides of protein X1 of SARS-CoV Urbani", "setting": "[1]", "value": 0.4}, {"measurement": "Binding of serum 1b to linear peptides of protein X1 of SARS-CoV Urbani", "setting": "[1]", "value": 0.5}, {"measurement": "Binding of serum 1b to looped/cyclic peptides of protein X1 of SARS-CoV Urbani", "setting": "[1]", "value": 0.3}, {"measurement": "Binding of serum 2 to linear peptides of protein X1 of SARS-CoV Urbani", "setting": "[1]", "value": 0.4}, {"measurement": "Binding of serum 2 to looped/cyclic peptides of protein X1 of SARS-CoV Urbani", "setting": "[1]", "value": 0.3}, {"measurement": "Binding of serum 6 to linear peptides of protein X1 of SARS-CoV Urbani", "setting": "[1]", "value": 0.4}, {"measurement": "Binding of serum 6 to looped/cyclic peptides of protein X1 of SARS-CoV Urbani", "setting": "[1]", "value": 0.2}, {"measurement": "Binding of serum 37 to linear peptides of protein X1 of SARS-CoV Urbani", "setting": "[1]", "value": 0.5}, {"measurement": "Binding of serum 37 to looped/cyclic peptides of protein X1 of SARS-CoV Urbani", "setting": "[1]", "value": 0.5}, {"measurement": "Binding of serum 62 to linear peptides of protein X1 of SARS-CoV Urbani", "setting": "[1]", "value": 0.5}, {"measurement": "Binding of serum 62 to looped/cyclic peptides of protein X1 of SARS-CoV Urbani", "setting": "[1]", "value": 0.5}, {"measurement": "Binding of serum London to linear peptides of protein X1 of SARS-CoV Urbani", "setting": "[1]", "value": 0.3}, {"measurement": "Binding of serum London to looped/cyclic peptides of protein X1 of SARS-CoV Urbani", "setting": "[1]", "value": 0.2}, {"measurement": "Binding of serum SARS-green to linear peptides of protein X1 of SARS-CoV Urbani", "setting": "[1]", "value": 0.2}, {"measurement": "Binding of serum SARS-green to looped/cyclic peptides of protein X1 of SARS-CoV Urbani", "setting": "[1]", "value": 0.4}, {"measurement": "Binding of serum SARS-yellow to linear peptides of protein X1 of SARS-CoV Urbani", "setting": "[1]", "value": 0.4}, {"measurement": "Binding of serum SARS-yellow to looped/cyclic peptides of protein X1 of SARS-CoV Urbani", "setting": "[1]", "value": 0.4}, {"measurement": "Binding of Control Serum Blood-Bank to Looped peptides", "setting": "[2]", "value": 0.5}, {"measurement": "Binding of Control serum Blood-bank to linear peptides", "setting": "[2]", "value": 0.3}, {"measurement": "Binding of Control serum LUMC to linear peptides", "setting": "[2]", "value": 0.5}, {"measurement": "Binding of Control serum LUMC to looped peptides", "setting": "[2]", "value": 0.5}, {"measurement": "Binding of a rabbit serum to linear peptides", "setting": "[3]", "value": 0.1}, {"measurement": "Binding of a rabbit serum to looped peptides", "setting": "[3]", "value": 0.6}]}, {"sequence": "QLLEQWNLVIGFLFL", "values": [{"measurement": "Binding of serum 1a to linear peptides of protein M of SARS-CoV Urbani", "setting": "[1]", "value": 0.7}, {"measurement": "Binding of serum 1a to looped/cyclic peptides of protein M of SARS-CoV Urbani", "setting": "[1]", "value": 0.5}, {"measurement": "Binding of serum 1b to linear peptides of protein M of SARS-CoV Urbani", "setting": "[1]", "value": 0.4}, {"measurement": "Binding of serum 1b to looped/cyclic peptides of protein M of SARS-CoV Urbani", "setting": "[1]", "value": 0.5}, {"measurement": "Binding of serum 2 to linear peptides of protein M of SARS-CoV Urbani", "setting": "[1]", "value": 0.5}, {"measurement": "Binding of serum 2 to looped/cyclic peptides of protein M of SARS-CoV Urbani", "setting": "[1]", "value": 0.4}, {"measurement": "Binding of serum 6 to linear peptides of protein M of SARS-CoV Urbani", "setting": "[1]", "value": 0.4}, {"measurement": "Binding of serum 6 to looped/cyclic peptides of protein M of SARS-CoV Urbani", "setting": "[1]", "value": 0.5}, {"measurement": "Binding of serum 37 to linear peptides of protein M of SARS-CoV Urbani", "setting": "[1]", "value": 0.6}, {"measurement": "Binding of serum 37 to looped/cyclic peptides of protein M of SARS-CoV Urbani", "setting": "[1]", "value": 0.5}, {"measurement": "Binding of serum 62 to linear peptides of protein M of SARS-CoV Urbani", "setting": "[1]", "value": 0.6}, {"measurement": "Binding of serum 62 to looped/cyclic peptides of protein M of SARS-CoV Urbani", "setting": "[1]", "value": 0.4}, {"measurement": "Binding of serum London to linear peptides of protein M of SARS-CoV Urbani", "setting": "[1]", "value": 0.4}, {"measurement": "Binding of serum London to looped/cyclic peptides of protein M of SARS-CoV Urbani", "setting": "[1]", "value": 0.2}, {"measurement": "Binding of serum SARS-green to linear peptides of protein M of SARS-CoV Urbani", "setting": "[1]", "value": 0.2}, {"measurement": "Binding of serum SARS-green to looped/cyclic peptides of protein M of SARS-CoV Urbani", "setting": "[1]", "value": 0.3}, {"measurement": "Binding of serum SARS-yellow to linear peptides of protein M of SARS-CoV Urbani", "setting": "[1]", "value": 0.0}, {"measurement": "Binding of serum SARS-yellow to looped/cyclic peptides of protein M of SARS-CoV Urbani", "setting": "[1]", "value": 0.7}, {"measurement": "Binding of Control Serum Blood-Bank to Looped peptides of the protein M of SARS-CoV Urbani", "setting": "[2]", "value": 0.5}, {"measurement": "Binding of Control serum Blood-bank to linear peptides of the protein M of SARS-CoV Urbani", "setting": "[2]", "value": 0.5}, {"measurement": "Binding of Control serum LUMC to linear peptides of the protein M of SARS-CoV Urbani", "setting": "[2]", "value": 0.3}, {"measurement": "Binding of Control serum LUMC to looped peptides of the protein M of SARS-CoV Urbani", "setting": "[2]", "value": 0.7}, {"measurement": "Rabbit serum linear peptides", "setting": "[3]", "value": 0.2}, {"measurement": "Rabbit serum looped peptides", "setting": "[3]", "value": 0.0}]}, {"sequence": "QLRARSVSPKLFIRQ", "values": [{"measurement": "Binding of serum 1a to linear peptides of protein X4 of SARS-CoV Urbani", "setting": "[1]", "value": 0.7}, {"measurement": "Binding of serum 1a to looped/cyclic peptides of protein X4 of SARS-CoV Urbani", "setting": "[1]", "value": 0.7}, {"measurement": "Binding of serum 1b to linear peptides of protein X4 of SARS-CoV Urbani", "setting": "[1]", "value": 0.6}, {"measurement": "Binding of serum 1b to looped/cyclic peptides of protein X4 of SARS-CoV Urbani", "setting": "[1]", "value": 0.6}, {"measurement": "Binding of serum 2 to linear peptides of protein X4 of SARS-CoV Urbani", "setting": "[1]", "value": 0.6}, {"measurement": "Binding of serum 2 to looped/cyclic peptides of protein X4 of SARS-CoV Urbani", "setting": "[1]", "value": 0.8}, {"measurement": "Binding of serum 6 to linear peptides of protein X4 of SARS-CoV Urbani", "setting": "[1]", "value": 0.9}, {"measurement": "Binding of serum 6 to looped/cyclic peptides of protein X4 of SARS-CoV Urbani", "setting": "[1]", "value": 0.9}, {"measurement": "Binding of serum 37 to linear peptides of protein X4 of SARS-CoV Urbani", "setting": "[1]", "value": 0.7}, {"measurement": "Binding of serum 37 to looped/cyclic peptides of protein X4 of SARS-CoV Urbani", "setting": "[1]", "value": 0.6}, {"measurement": "Binding of serum 62 to linear peptides of protein X4 of SARS-CoV Urbani", "setting": "[1]", "value": 0.7}, {"measurement": "Binding of serum 62 to looped/cyclic peptides of protein X4 of SARS-CoV Urbani", "setting": "[1]", "value": 0.6}, {"measurement": "Binding of serum London to linear peptides of protein X4 of SARS-CoV Urbani", "setting": "[1]", "value": 0.8}, {"measurement": "Binding of serum London to looped/cyclic peptides of protein X4 of SARS-CoV Urbani", "setting": "[1]", "value": 0.4}, {"measurement": "Binding of serum SARS-green to linear peptides of protein X4 of SARS-CoV Urbani", "setting": "[1]", "value": 0.6}, {"measurement": "Binding of serum SARS-green to looped/cyclic peptides of protein X4 of SARS-CoV Urbani", "setting": "[1]", "value": 0.4}, {"measurement": "Binding of serum SARS-yellow to linear peptides of protein X4 of SARS-CoV Urbani", "setting": "[1]", "value": 0.3}, {"measurement": "Binding of serum SARS-yellow to looped/cyclic peptides of protein X4 of SARS-CoV Urbani", "setting": "[1]", "value": 0.8}, {"measurement": "Binding of Control Serum Blood-Bank to Looped peptides", "setting": "[2]", "value": 0.9}, {"measurement": "Binding of Control serum Blood-bank to linear peptides", "setting": "[2]", "value": 0.7}, {"measurement": "Binding of Control serum LUMC to linear peptides", "setting": "[2]", "value": 0.6}, {"measurement": "Binding of Control serum LUMC to looped peptides", "setting": "[2]", "value": 0.8}, {"measurement": "Recognition of the peptide by the rabbit serum", "setting": "[3]", "value": "recognized"}]}]}
